Data reported in US20250215029A1 (Recludix Pharma, Inc., priority 2022, published 2025).

What was measured:
[1] = target: T1, Recombinant STAT6 protein (STAT6 (W123-T658)) (Homo sapiens, UniProt P42226); experiment: STAT6 Fluorescence Polarization (FP) Assay; assay type: binding; details: STAT6 (W123-T658) 250 nM, probe 5-FAM-Ap[…]-NH2 2 nM, 45-minute incubation; read-out: STAT6 (FP assay IC50 class)
T1 construct: Recombinant STAT6 protein (STAT6 (W123-T658))
T1 sequence (P42226 123-658): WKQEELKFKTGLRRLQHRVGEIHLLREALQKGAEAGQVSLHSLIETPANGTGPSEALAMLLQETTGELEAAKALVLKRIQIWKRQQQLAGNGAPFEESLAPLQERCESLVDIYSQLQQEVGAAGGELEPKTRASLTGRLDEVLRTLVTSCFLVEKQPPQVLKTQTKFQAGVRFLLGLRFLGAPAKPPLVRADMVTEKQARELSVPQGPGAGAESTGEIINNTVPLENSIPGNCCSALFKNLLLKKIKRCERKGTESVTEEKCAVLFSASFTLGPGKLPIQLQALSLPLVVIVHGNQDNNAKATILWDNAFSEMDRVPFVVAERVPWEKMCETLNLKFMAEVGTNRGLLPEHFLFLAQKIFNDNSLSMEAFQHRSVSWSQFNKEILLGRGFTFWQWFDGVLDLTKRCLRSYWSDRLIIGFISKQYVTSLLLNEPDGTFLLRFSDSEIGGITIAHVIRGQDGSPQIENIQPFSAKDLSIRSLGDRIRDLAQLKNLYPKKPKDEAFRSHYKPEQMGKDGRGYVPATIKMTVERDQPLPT
In short: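 Fluorescence polarization (mP) read-out: 250 nM STAT6 (W123-T658) plus 2 nM 5-FAM phosphotyrosine peptide, 45 min, room temperature, 1% DMSO. IC50 by nonlinear fit of mP against log compound concentration.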

[2] = target: T2, Recombinant STAT3 protein (STAT3 (G127-I722)) (Homo sapiens, UniProt P40763); experiment: STAT3 Fluorescence Polarization (FP) Assay; assay type: binding; details: STAT3 (G127-I722) 25 nM, probe 5-FAM-GpYLPQTV-NH2 2 nM, 45-minute incubation; read-out: STAT3 (FP assay IC50 class)
T2 construct: Recombinant STAT3 protein (STAT3 (G127-I722))
T2 sequence (P40763 127-722): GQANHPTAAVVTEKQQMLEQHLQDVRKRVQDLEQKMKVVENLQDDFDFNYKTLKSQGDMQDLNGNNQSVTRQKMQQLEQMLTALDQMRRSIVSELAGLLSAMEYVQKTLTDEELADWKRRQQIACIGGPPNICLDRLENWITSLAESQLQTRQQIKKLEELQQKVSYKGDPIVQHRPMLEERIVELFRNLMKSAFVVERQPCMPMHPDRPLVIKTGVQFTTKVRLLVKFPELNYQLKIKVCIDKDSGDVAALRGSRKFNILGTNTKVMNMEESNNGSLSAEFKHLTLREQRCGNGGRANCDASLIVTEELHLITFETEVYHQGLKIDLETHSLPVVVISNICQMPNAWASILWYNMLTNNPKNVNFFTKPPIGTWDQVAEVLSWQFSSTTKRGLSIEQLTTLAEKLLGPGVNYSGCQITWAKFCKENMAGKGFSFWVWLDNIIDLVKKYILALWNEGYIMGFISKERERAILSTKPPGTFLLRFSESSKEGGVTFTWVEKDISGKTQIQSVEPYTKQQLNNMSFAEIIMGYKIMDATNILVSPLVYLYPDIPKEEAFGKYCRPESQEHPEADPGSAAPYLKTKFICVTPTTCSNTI
In short: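 In this competition FP format, STAT3 residues G127-I722 (25 nM) and 2 nM 5-FAM-GpYLPQTV-NH2 met test compounds for 45 min at room temperature. IC50 values result from fitting mP signal against log concentration by nonlinear regression.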

Row | SMILES | IC50 [1] | IC50 [2]
1 | O=C(N[C@H]1CCC[C@H]2CC[C@@H](C(=O)N3CC(c4cc(F)ccn4)C3)N2C1=O)c1cc2cc(CP(=O)(O)O)ccc2s1 [Compound 541, ((2-(((3S,6S,9aS)-3-(3-(4-fluoropyridin-2-yl)azetidine-1-carbonyl)-5-oxooctahydro-1H-pyrrolo[1,2-a]azepin-6-yl)carbamoyl)benzo[b]thiophen-5-yl)methyl)phosphonic acid] | 3 to 30 µM | 1 to 10 µM
2 | Cn1nccc1N1CC[C@@H](NC(=O)[C@@H]2CC[C@@H]3CCCC[C@H](NC(=O)c4cc5cc(C(F)P(=O)(O)O)ccc5s4)C(=O)N32)C1 (stereo partly drawn) [Compound 542, (fluoro(2-(((3S,6S,10aS)-3-(((R)-1-(1-methyl-1H-pyrazol-5-yl)pyrrolidin-3-yl)carbamoyl)-5-oxodecahydropyrrolo[1,2-a]azocin-6-yl)carbamoyl)benzo[b]thiophen-5-yl)methyl)phosphonic acid] | 3 to 30 µM | 1 to 10 µM
3 | O=C(N[C@H]1CCC[C@H]2CC[C@@H](C(=O)N3CC(c4cc(O)ccn4)C3)N2C1=O)c1cc2cc(CP(=O)(O)O)ccc2s1 [Compound 543, ((2-(((3S,6S,9aS)-3-(3-(4-hydroxypyridin-2-yl)azetidine-1-carbonyl)-5-oxooctahydro-1H-pyrrolo[1,2-a]azepin-6-yl)carbamoyl)benzo[b]thiophen-5-yl)methyl)phosphonic acid] | 3 to 30 µM | 1 to 10 µM
4 | O=C(N[C@H]1CCC[C@H]2CC[C@@H](C(=O)N3CC(c4ccc5ncccc5c4F)C3)N2C1=O)c1cc2cc(C(F)P(=O)(O)O)ccc2s1 (stereo partly drawn) [Compound 544, (fluoro(2-(((3S,6S,9aS)-3-(3-(5-fluoroquinolin-6-yl)azetidine-1-carbonyl)-5-oxooctahydro-1H-pyrrolo[1,2-a]azepin-6-yl)carbamoyl)benzo[b]thiophen-5-yl)methyl)phosphonic acid] | 3 to 30 µM | 1 to 10 µM
5 | O=Cc1ccncc1C1CN(C(=O)[C@@H]2CC[C@@H]3CCC[C@H](NC(=O)c4cc5cc(CP(=O)(O)O)ccc5s4)C(=O)N32)C1 [Compound 545, ((2-(((3S,6S,9aS)-3-(3-(4-formylpyridin-3-yl)azetidine-1-carbonyl)-5-oxooctahydro-1H-pyrrolo[1,2-a]azepin-6-yl)carbamoyl)benzo[b]thiophen-5-yl)methyl)phosphonic acid] | 3 to 30 µM | 1 to 10 µM
6 | O=C(N[C@H]1CCC[C@H]2CC[C@@H](C(=O)N3CC(c4cnccc4C4OCCO4)C3)N2C1=O)c1cc2cc(CP(=O)(O)O)ccc2s1 [Compound 546, ((2-(((3S,6S,9aS)-3-(3-(4-(1,3-dioxolan-2-yl)pyridin-3-yl)azetidine-1-carbonyl)-5-oxooctahydro-1H-pyrrolo[1,2-a]azepin-6-yl)carbamoyl)benzo[b]thiophen-5-yl)methyl)phosphonic acid] | 3 to 30 µM | 1 to 10 µM
7 | CC1(c2ccccn2)CN(C(=O)[C@@H]2CC[C@@H]3CCC[C@H](NC(=O)c4cc5cc(C(F)(F)P(=O)(O)O)ccc5s4)C(=O)N32)C1 [Compound 547, (difluoro(2-(((3S,6S,9aS)-3-(3-methyl-3-(pyridin-2-yl)azetidine-1-carbonyl)-5-oxooctahydro-1H-pyrrolo[1,2-a]azepin-6-yl)carbamoyl)benzo[b]thiophen-5-yl)methyl)phosphonic acid] | 0.3 to 3 µM | < 0.1 µM
8 | CC1(c2ccccn2)CN(C(=O)[C@@H]2CC[C@@H]3CCC[C@H](NC(=O)c4cc5cc(CP(=O)(O)O)ccc5s4)C(=O)N32)C1 [Compound 548, ((2-(((3S,6S,9aS)-3-(3-methyl-3-(pyridin-2-yl)azetidine-1-carbonyl)-5-oxooctahydro-1H-pyrrolo[1,2-a]azepin-6-yl)carbamoyl)benzo[b]thiophen-5-yl)methyl)phosphonic acid] | 3 to 30 µM | 1 to 10 µM
9 | NC(=O)N1CC(NC(=O)[C@@H]2CC[C@@H]3CCCC[C@H](NC(=O)c4cc5cc(C(F)P(=O)(O)O)ccc5s4)C(=O)N32)C1 (stereo partly drawn) [Compound 549, ((2-(((3S,6S,10aS)-3-((1-carbamoylazetidin-3-yl)carbamoyl)-5-oxodecahydropyrrolo[1,2-a]azocin-6-yl)carbamoyl)benzo[b]thiophen-5-yl)fluoromethyl)phosphonic acid] | 3 to 30 µM | < 0.1 µM
10 | CCc1ccncc1C1CN(C(=O)[C@@H]2CC[C@@H]3CCC[C@H](NC(=O)c4ccc5cc(CP(=O)(O)O)sc5c4)C(=O)N32)C1 [Compound 550, ((6-(((3S,6S,9aS)-3-(3-(4-ethylpyridin-3-yl)azetidine-1-carbonyl)-5-oxooctahydro-1H-pyrrolo[1,2-a]azepin-6-yl)carbamoyl)benzo[b]thiophen-2-yl)methyl)phosphonic acid] | 3 to 30 µM | 0.1 to 1 µM
11 | O=C(N[C@H]1CCCC[C@H]2CC[C@@H](C(=O)N[C@H]3CN(C(=O)OC4CC4)C[C@@H]3F)N2C1=O)c1cc2cc(C(F)P(=O)(O)O)ccc2s1 (stereo partly drawn) [Compound 554, ((2-(((3S,6S,10aS)-3-(((3S,4S)-1-(cyclopropoxycarbonyl)-4-fluoropyrrolidin-3-yl)carbamoyl)-5-oxodecahydropyrrolo[1,2-a]azocin-6-yl)carbamoyl)benzo[b]thiophen-5-yl)fluoromethyl)phosphonic acid] | 0.3 to 3 µM | 1 to 10 µM
12 | Cc1cccnc1N1C[C@H](NC(=O)[C@@H]2CC[C@@H]3CCCC[C@H](NC(=O)c4cc5cc(C(F)P(=O)(O)O)ccc5s4)C(=O)N32)[C@@H](F)C1 (stereo partly drawn) [Compound 555, (fluoro(2-(((3S,6S,10aS)-3-(((3S,4S)-4-fluoro-1-(3-methylpyridin-2-yl)pyrrolidin-3-yl)carbamoyl)-5-oxodecahydropyrrolo[1,2-a]azocin-6-yl)carbamoyl)benzo[b]thiophen-5-yl)methyl)phosphonic acid] | 3 to 30 µM | 0.1 to 1 µM
13 | COc1cc(F)c(C2CN(C(=O)[C@@H]3CC[C@@H]4CCC[C@H](NC(=O)c5cc6cc(CP(=O)(O)O)ccc6s5)C(=O)N43)C2)cn1 [Compound 556, ((2-(((3S,6S,9aS)-3-(3-(4-fluoro-6-methoxypyridin-3-yl)azetidine-1-carbonyl)-5-oxooctahydro-1H-pyrrolo[1,2-a]azepin-6-yl)carbamoyl)benzo[b]thiophen-5-yl)methyl)phosphonic acid] | 3 to 30 µM | 1 to 10 µM
14 | NC(=O)N1C[C@H](NC(=O)[C@@H]2CC[C@@H]3CCCC[C@H](NC(=O)c4cc5cc(C(F)P(=O)(O)O)ccc5s4)C(=O)N32)[C@@H](F)C1 (stereo partly drawn) [Compound 558, ((2-(((3S,6S,10aS)-3-(((3S,4S)-1-carbamoyl-4-fluoropyrrolidin-3-yl)carbamoyl)-5-oxodecahydropyrrolo[1,2-a]azocin-6-yl)carbamoyl)benzo[b]thiophen-5-yl)fluoromethyl)phosphonic acid] | 0.3 to 3 µM | < 0.1 µM
15 | O=C(N[C@H]1CCCC[C@H]2CC[C@@H](C(=O)N[C@@H]3CCN(c4ccn[nH]4)C3)N2C1=O)c1cc2cc(C(F)P(=O)(O)O)ccc2s1 (stereo partly drawn) [Compound 559, ((2-(((3S,6S,10aS)-3-(((R)-1-(1H-pyrazol-5-yl)pyrrolidin-3-yl)carbamoyl)-5-oxodecahydropyrrolo[1,2-a]azocin-6-yl)carbamoyl)benzo[b]thiophen-5-yl)fluoromethyl)phosphonic acid] | 0.3 to 3 µM | 1 to 10 µM
16 | O=C(N[C@H]1CCC[C@H]2CC[C@@H](C(=O)N3CC(c4cc5cccnc5cc4F)C3)N2C1=O)c1cc2cc(C(F)P(=O)(O)O)ccc2s1 (stereo partly drawn) [Compound 560, (fluoro(2-(((3S,6S,9aS)-3-(3-(7-fluoroquinolin-6-yl)azetidine-1-carbonyl)-5-oxooctahydro-1H-pyrrolo[1,2-a]azepin-6-yl)carbamoyl)benzo[b]thiophen-5-yl)methyl)phosphonic acid] | 3 to 30 µM | 1 to 10 µM
17 | O=C(N[C@H]1CCC[C@H]2CC[C@@H](C(=O)N3CC(c4cccnc4C(F)F)C3)N2C1=O)c1cc2cc(CP(=O)(O)O)ccc2s1 [Compound 562, ((2-(((3S,6S,9aS)-3-(3-(2-(difluoromethyl)pyridin-3-yl)azetidine-1-carbonyl)-5-oxooctahydro-1H-pyrrolo[1,2-a]azepin-6-yl)carbamoyl)benzo[b]thiophen-5-yl)methyl)phosphonic acid] | 3 to 30 µM | 0.1 to 1 µM
18 | O=C(N[C@H]1CCCC[C@H]2CC[C@@H](C(=O)N3CCC(c4ccccc4F)C3)N2C1=O)c1cc2cc(C(F)P(=O)(O)O)ccc2s1 (stereo partly drawn) [Compound 563, (fluoro(2-(((3S,6S,10aS)-3-(3-(2-fluorophenyl)pyrrolidine-1-carbonyl)-5-oxodecahydropyrrolo[1,2-a]azocin-6-yl)carbamoyl)benzo[b]thiophen-5-yl)methyl)phosphonic acid] | 0.3 to 3 µM | 1 to 10 µM
